Results published in publication PMC7101335, “Aryl-alkyl-lysines: Novel agents for treatment of C. difficile infection” (Scientific Reports, 2020).
In brackets after ≈: the same amount, converted by molar mass. Read-outs that look alike come from different tables or passages of the source.

Tests used:
[1] = Caco-2 bidirectional permeability assay; type: in vitro ADME, human; conditions: human, Caco-2
Procedure: The Caco-2 bidirectional permeability assay was conducted as described in previous reports[29],[30],[41],[42]. The Caco-2 cell line is similar to human enterocytes and expresses P-glycoprotein and other relevant metabolic enzymes that affect absorption of orally-administered xenobiotics across the intestinal mucosa[34],[43],[44]. Caco-2 cells were grown in tissue culture flasks, trypsinized (by rinsing cells with phosphate-buffered saline and then treating with trypsin-EDTA for 5–10 minutes at 37 °C with 5% CO2 until cells detached), suspended in Dulbecco’s Modified Eagle Medium with 10% fetal bovine serum, 1% nonessential amino acids and penicillin-streptomycin, and then seeded onto wells of a Millipore 96-well Caco-2 plate. Cells were cultured at 37 °C with 5% CO2 until confluent (approximately three weeks) and media was changed at relevant time points. For Apical to Basolateral (A → B) permeability, the test article was added to the apical (A) compartment and the amount of permeation (Papp, as calculated below) to the basolateral (B) compartment was determined; for Basolateral to Apical (B → A) permeability, the test article was added to the B compartment and the amount of permeation to the A compartment was determined. […] Caco-2 cells were incubated with these buffers for two hours, and the receiver side buffer was removed for analysis by LC/MS/MS. To verify the tight junctions and integrity of Caco-2 cell monolayers, aliquots of the cell buffers were analyzed by fluorescence (Lucifer yellow transport ≤ 2%). Any deviations from control values are reported. Data are expressed as permeability (Papp) = (dQ/dt)/(C0A) where dQ/dt is the rate of permeation, C0 is the initial concentration of test agent, and A is the area of the monolayer.

E. faecalis = experiment: Broth microdilution MIC against E. faecalis strains; type: cell-based; conditions: Enterococcus faecalis, read-out: Minimum inhibitory concentration
[2] = tested on: vancomycin-resistant and vancomycin-susceptible strains of Enterococcus; experiment: Broth microdilution MIC against Enterococcus strains (E. faecalis and E. faecium, summary in text); type: cell-based; conditions: all E. faecalis and E. faecium strains tested, vancomycin-resistant and -sensitive
Clostridium difficile = experiment: Broth microdilution MIC against Clostridium difficile strains; type: cell-based; conditions: Clostridioides difficile
Procedure: The broth microdilution assay was utilized following the Clinical and Laboratory Standards Institute (CLSI) guidelines with slight modifications. Briefly, C. difficile strains were grown on anaerobic blood agar plates (Becton Dickinson, BD) and suspended in brain heart infusion supplemented broth (Brain heart infusion medium, BD, supplemented with yeast extract, L-cysteine, Vitamin K1 and Hemin, Sigma) to achieve a bacterial concentration of ~10^5 CFU/ml. The bacterial suspension was seeded in 96-well plates containing drugs/compounds, in duplicate, at the required concentration. Plates were then incubated at 37 °C anaerobically for 48 hours. MICs reported are the lowest concentration of each agent that inhibited the visual growth of bacteria.

[3] = tested on: human ileocecal colorectal adenocarcinoma cell line (HRT-18); experiment: Cytotoxicity, MTS assay, HRT-18 cells; type: cell-based; conditions: 32 µg mL^−1, 2 hours
Procedure: Briefly, ~2 × 10^4 cells suspended in 100 µL of RPMI-1640 supplemented with 10% horse serum were seeded in a 96-well plate and incubated at 37 °C with 5% CO2. The cells were cultured for 24 hours until reaching ~90% confluency. The cells were further incubated with the aforementioned concentrations of the compounds for 2 hours. Afterwards, culture media were discarded and the cells in each well were washed with PBS and 100 µL of cell culture media were added prior to addition of the assay reagent MTS 3-(4,5-dimethylthiazol-2-yl)-5-(3-carboxymethoxyphenyl)-2-(4-sulfophenyl)-2H-tetrazolium) (Promega). The plates were incubated for 4 hours at 37 °C in a humidified 5% CO2 atmosphere. The absorbance was recorded at 490 nm and the corrected absorbance readings (actual absorbance readings for each treatment subtracted from background absorbance) were taken using a kinetic ELISA microplate reader (SpectraMax i3x, Molecular Devices, Sunnyvale, CA, USA). The quantity of viable cells after treatment with each compound was expressed as a percentage of the control, DMSO. Asterisk (*) denotes a significant difference from the DMSO-treated cells using 2-way analysis of variance (ANOVA) followed by Dunnett’s pairwise comparison.

E. faecium = experiment: Broth microdilution MIC against E. faecium strains; type: cell-based; conditions: Enterococcus faecium, read-out: Minimum inhibitory concentration
[4] = E. faecalis SF28073 (vancomycin-resistant)
[5] = C. difficile Isolate 1 (NR-13427), read-out: Minimum inhibitory concentration
[6] = C. difficile Isolate 2 (NR-13428), read-out: Minimum inhibitory concentration
[7] = C. difficile Isolate 4 (NR-13430), read-out: Minimum inhibitory concentration
[8] = C. difficile Isolate 5 (NR-13431), read-out: Minimum inhibitory concentration
[9] = C. difficile Isolate 6 (NR-13432), read-out: Minimum inhibitory concentration
[10] = C. difficile Isolate 9 (NR-13435), read-out: Minimum inhibitory concentration
[11] = C. difficile Isolate 10 (NR-13436), read-out: Minimum inhibitory concentration
[12] = C. difficile P2 (NR-32883), read-out: Minimum inhibitory concentration
[13] = C. difficile P4 (NR-32889), read-out: Minimum inhibitory concentration
[14] = C. difficile P8 (NR-32888), read-out: Minimum inhibitory concentration
[15] = C. difficile P13 (NR-32891), read-out: Minimum inhibitory concentration
[16] = C. difficile P15 (NR-32892), read-out: Minimum inhibitory concentration
[17] = C. difficile P20 (NR-32896), read-out: Minimum inhibitory concentration
[18] = C. difficile P21 (NR-32897), read-out: Minimum inhibitory concentration
[19] = C. difficile P29 (NR-32903), read-out: Minimum inhibitory concentration
[20] = across all tested strains of C. difficile
[21] = E. faecium E417 (vancomycin-resistant)

Row | Compound | MIC (E. faecalis; E. faecalis B3196) | MIC (E. faecalis; E. faecalis B3286) | MIC (E. faecalis; E. faecalis B3336) | MIC (E. faecalis; E. faecalis SF24397) | MIC (E. faecalis; [4]) | MIC [2] | MIC (Clostridium difficile; [5]) | MIC (Clostridium difficile; [6]) | MIC (Clostridium difficile; [7]) | MIC (Clostridium difficile; [8]) | MIC (Clostridium difficile; [9]) | MIC (Clostridium difficile; [10]) | MIC (Clostridium difficile; [11]) | MIC (Clostridium difficile; [12]) | MIC (Clostridium difficile; [13]) | MIC (Clostridium difficile; [14]) | MIC (Clostridium difficile; [15]) | MIC (Clostridium difficile; [16]) | MIC (Clostridium difficile; [17]) | MIC (Clostridium difficile; [18]) | further results
1 | CC(=O)CC(c1ccccc1)c1c(O)c2ccccc2oc1=O (stereo not shown) [Warfarin] | – | – | – | – | – | – | – | – | – | – | – | – | – | – | – | – | – | – | – | – | efflux ratio at 2 h ([1]; Re = (Papp B→A)/(Papp A→B)): 1.54; Papp A→B at 2 h ([1]; apical (pH 6.5) to basolateral (pH 7.4), two hours): 12.7 ×10⁻⁶ cm/s; Papp B→A at 2 h ([1]; basolateral to apical, two hours): 19.6 ×10⁻⁶ cm/s
2 | CCCCCCN(Cc1cccc2ccccc12)C(=O)[C@@H](N)CCCCN [NCK-6] | 128 µg/mL (≈ 346 µM) | 128 µg/mL (≈ 346 µM) | 128 µg/mL (≈ 346 µM) | 128 µg/mL (≈ 346 µM) | 128 µg/mL (≈ 346 µM) | 64 to 128 µg/mL (≈ 173 to 346 µM) | 64 µg/mL (≈ 173 µM) | 64 µg/mL (≈ 173 µM) | 64 µg/mL (≈ 173 µM) | 32 µg/mL (≈ 86.6 µM) | 64 µg/mL (≈ 173 µM) | 32 µg/mL (≈ 86.6 µM) | 64 µg/mL (≈ 173 µM) | 64 µg/mL (≈ 173 µM) | 64 µg/mL (≈ 173 µM) | 64 µg/mL (≈ 173 µM) | 64 µg/mL (≈ 173 µM) | 64 µg/mL (≈ 173 µM) | 64 µg/mL (≈ 173 µM) | 32 µg/mL (≈ 86.6 µM) | MIC (Clostridium difficile; [19]): 32 µg/mL (≈ 86.6 µM); MIC (Clostridium difficile; [20]): 32 µg/mL (≈ 86.6 µM); toxicity to HRT-18 cells [3]: survived; MIC (E. faecium; [21]): 64 µg/mL (≈ 173 µM); MIC (E. faecium; E. faecium E1071): 128 µg/mL (≈ 346 µM); MIC (E. faecium; E. faecium UAA714): 128 µg/mL (≈ 346 µM)
3 | CCCCCCCCCCCCN(Cc1cccc2ccccc12)C(=O)[C@@H](N)CCCCN [NCK-12] | 4 µg/mL (≈ 8.82 µM) | 8 µg/mL (≈ 17.6 µM) | 8 µg/mL (≈ 17.6 µM) | 8 µg/mL (≈ 17.6 µM) | 4 µg/mL (≈ 8.82 µM) | 4 to 8 µg/mL (≈ 8.82 to 17.6 µM) | 4 µg/mL (≈ 8.82 µM) | 2 µg/mL (≈ 4.41 µM) | 2 µg/mL (≈ 4.41 µM) | 1 µg/mL (≈ 2.2 µM) | 2 µg/mL (≈ 4.41 µM) | 2 µg/mL (≈ 4.41 µM) | 2 µg/mL (≈ 4.41 µM) | 1 µg/mL (≈ 2.2 µM) | 4 µg/mL (≈ 8.82 µM) | 4 µg/mL (≈ 8.82 µM) | 2 µg/mL (≈ 4.41 µM) | 2 µg/mL (≈ 4.41 µM) | 2 µg/mL (≈ 4.41 µM) | 2 µg/mL (≈ 4.41 µM) | MIC (Clostridium difficile; [19]): 2 µg/mL (≈ 4.41 µM); MIC (Clostridium difficile; [20]): 1 to 4 µg/mL (≈ 2.2 to 8.82 µM); toxicity to HRT-18 cells [3]: survived; MIC (E. faecium; [21]): 4 µg/mL (≈ 8.82 µM); MIC (E. faecium; E. faecium E1071): 8 µg/mL (≈ 17.6 µM); MIC (E. faecium; E. faecium UAA714): 8 µg/mL (≈ 17.6 µM)
